Source: US11787839B2, “Targeting α2δ-1-bound glutamate receptors for treating diseases and disorders” (Board of Regents, The University of Texas System, priority 2017, dated 2023)

Legend:
[1] = target: T1, NMDARs of spinally projecting PVN neurons (Rattus norvegicus, UniProt P35439+Q00959+Q00960); experiment: Recordings of spinally projecting PVN neurons in rat brain slices (Ang II); assay type: cell-based; conditions: losartan 2 μmol/L, pregabalin 20 μmol/L, peptides 1 μmol/L
T1 construct: from tissue; host or cells: rat hypothalamic slices containing the PVN (Sprague-Dawley, WKY, SHR) and synaptosomes made from them
Text: Retrograde labeling of spinally projecting PVN neurons: Rats or mice were anesthetized with 2-3% isoflurane, and their spinal cords at the T1-T4 level were exposed through dorsal laminectomy. A fluorescent microsphere suspension (FluoSpheres, 0.04 μm; Molecular Probes, Invitrogen, Eugene, Oreg.) was pressure ejected (Nanoject II Microinjectors, Drummond Scientific Company, Broomall, Pa.) bilaterally into the IML region of the spinal cord in six separate 50-nl injections using a glass micropipette (tip diameter, 20-30 μm). […] The wound was closed with sutures after injection. Animals were returned to their cages for 4-7 days, which was sufficient time to permit the tracer to be retrogradely transported to the PVN. The animals were inspected daily for motor activity, signs of infection, and food and water intake.
Brain slice preparation: Four to seven days after fluorescent tracer injection, the animals were anesthetized with isoflurane and rapidly decapitated. […] Coronal slices (thickness, 300 μm) containing the PVN were cut from the tissue block in the ice-cold aCSF. […] The brain slices were placed in a glass-bottom chamber and continuously perfused with aCSF at 3.0 ml/min at 34° C. maintained by an inline solution heater and temperature controller.
The labeled PVN neurons were briefly identified with the aid of epifluorescence illumination, and whole-cell recordings from labeled PVN neurons were performed under differential interference contrast optics on an upright microscope (BX50 WI; Olympus Optical, Tokyo, Japan). Recordings of postsynaptic currents began 5 min after the whole-cell access was established and the current reached a steady state.
Signals were processed with an […] amplifier (Axon Instruments, Foster City, Calif.). A liquid junction potential of 15 mV (for the potassium gluconate pipette solution) was corrected during off-line analysis.
Postsynaptic NMDAR currents were elicited by puff application of 100 μmol/L NMDA to the recorded neuron using a positive pressure system (4 p.s.i., 50 ms; Toohey Company, Fairfield, N.J.). The tip of the puff pipette was placed 150 μm from the recorded neuron. […] The NMDAR current data presented in the manuscript were the average of 3 consecutive currents elicited by repeated puff NMDA. The neuron was discarded if the current was not stable.
Ang II, losartan, and NMDA were obtained from Sigma (St. Louis, Mo.). The α2δ-1Tat peptide and scrambled control peptide were synthesized by Bio Basic Inc. (Markham, Ontario, Canada) and validated by liquid chromatography and mass spectrometry. […] All drugs were prepared immediately before the experiments and applied to the slice chamber. The brain slices were first pretreated with Ang II, losartan, α2δ-1Tat peptide, or control peptide in the slice incubation chamber before recording. For electrophysiological recording, the treatment agents were immediately removed and the brain slice transferred to a separate recording chamber.

[2] = tested on: rats treated with the Cacna2d1 vector; experiment: Withdrawal thresholds in rats overexpressing Cacna2d1 (lentiviral vector); assay type: in vivo, rat; conditions: Cacna2d1 vector rats; AP5, peptide, gabapentin intrathecal; memantine systemic
[3] = tested on: presynaptic NMDARs of spinal dorsal horn neurons; experiment: Spinal cord slice recordings, morphine-treated WT and Cacna2d1 KO mice; conditions: WT mice
[4] = tested on: WT and Cacna2d1 KO mice; experiment: Opioid-induced hyperalgesia and analgesic tolerance in WT and Cacna2d1 KO mice
[5] = tested on: morphine-treated rats; experiment: Opioid-induced hyperalgesia and analgesic tolerance in rats
[6] = tested on: paclitaxel-treated rats; experiment: Paclitaxel-induced pain hypersensitivity in rats; assay type: in vivo, rat; conditions: intrathecal 5 μg pregabalin, 1 μg peptides
Method: To induce neuropathic pain, rats and mice were intraperitoneally injected with paclitaxel (2 mg/kg; TEVA Pharmaceuticals, North Wales, Pa.) every 2 days for a total of 4 injections (days 1, 3, 5 and 7; total dose, 8 mg/kg), as described previously (Polomano et al., 2001). Animals in the control group were intraperitoneally injected with the vehicle (Cremophor EL/ethanol, 1:1) on the same 4 days. The presence of tactile allodynia was confirmed 10 to 12 days after drug treatment. Intrathecal catheters were implanted in some paclitaxel-treated rats during isoflurane-induced anesthesia. Briefly, a small puncture was made in the atlanto-occipital membrane of the cisterna magna and inserted a PE-10 catheter with the caudal tip reaching the lumbar enlargement of the spinal cord (Chen et al., 2014a; Xie et al., 2016).
Behavioral assessment of nociception: To measure tactile allodynia, mice or rats were individually placed on a mesh floor within a suspended chamber. […]
To quantify the mechanical nociceptive threshold in rats, the paw pressure (Randall-Selitto) test was conducted on the left hindpaw using an analgesiometer (Ugo Basile, Varese, Italy). […] When the rat withdrew its paw or vocalized, the pedal was immediately released, and the withdrawal threshold was recorded (Chen et al., 2014a). […]
To assess the thermal sensitivity of rats, the were placed individually on the glass surface of a thermal testing apparatus (IITC Life Sciences, Woodland Hills, Calif.). […] The paw withdrawal latency was recorded with a timer, and the hindpaw was tested twice to obtain an average time. […] After the threshold temperature was recorded, the mice were immediately removed from the plate. The heat threshold measurement was repeated 30 min later, and the average of the 2 recorded temperatures was considered as the heat threshold. The cold threshold was measured by cooling the plate from 30° C. at a rate of 6° C./min until nocifensive behaviors were observed. […]

[7] = target: presynaptic NMDARs of spinal lamina II neurons (Rattus norvegicus, UniProt P35439+Q00959+Q00960)
Chain of presynaptic NMDARs of spinal lamina II neurons (Q00959 20-1464 limits assumed, other chains not shown): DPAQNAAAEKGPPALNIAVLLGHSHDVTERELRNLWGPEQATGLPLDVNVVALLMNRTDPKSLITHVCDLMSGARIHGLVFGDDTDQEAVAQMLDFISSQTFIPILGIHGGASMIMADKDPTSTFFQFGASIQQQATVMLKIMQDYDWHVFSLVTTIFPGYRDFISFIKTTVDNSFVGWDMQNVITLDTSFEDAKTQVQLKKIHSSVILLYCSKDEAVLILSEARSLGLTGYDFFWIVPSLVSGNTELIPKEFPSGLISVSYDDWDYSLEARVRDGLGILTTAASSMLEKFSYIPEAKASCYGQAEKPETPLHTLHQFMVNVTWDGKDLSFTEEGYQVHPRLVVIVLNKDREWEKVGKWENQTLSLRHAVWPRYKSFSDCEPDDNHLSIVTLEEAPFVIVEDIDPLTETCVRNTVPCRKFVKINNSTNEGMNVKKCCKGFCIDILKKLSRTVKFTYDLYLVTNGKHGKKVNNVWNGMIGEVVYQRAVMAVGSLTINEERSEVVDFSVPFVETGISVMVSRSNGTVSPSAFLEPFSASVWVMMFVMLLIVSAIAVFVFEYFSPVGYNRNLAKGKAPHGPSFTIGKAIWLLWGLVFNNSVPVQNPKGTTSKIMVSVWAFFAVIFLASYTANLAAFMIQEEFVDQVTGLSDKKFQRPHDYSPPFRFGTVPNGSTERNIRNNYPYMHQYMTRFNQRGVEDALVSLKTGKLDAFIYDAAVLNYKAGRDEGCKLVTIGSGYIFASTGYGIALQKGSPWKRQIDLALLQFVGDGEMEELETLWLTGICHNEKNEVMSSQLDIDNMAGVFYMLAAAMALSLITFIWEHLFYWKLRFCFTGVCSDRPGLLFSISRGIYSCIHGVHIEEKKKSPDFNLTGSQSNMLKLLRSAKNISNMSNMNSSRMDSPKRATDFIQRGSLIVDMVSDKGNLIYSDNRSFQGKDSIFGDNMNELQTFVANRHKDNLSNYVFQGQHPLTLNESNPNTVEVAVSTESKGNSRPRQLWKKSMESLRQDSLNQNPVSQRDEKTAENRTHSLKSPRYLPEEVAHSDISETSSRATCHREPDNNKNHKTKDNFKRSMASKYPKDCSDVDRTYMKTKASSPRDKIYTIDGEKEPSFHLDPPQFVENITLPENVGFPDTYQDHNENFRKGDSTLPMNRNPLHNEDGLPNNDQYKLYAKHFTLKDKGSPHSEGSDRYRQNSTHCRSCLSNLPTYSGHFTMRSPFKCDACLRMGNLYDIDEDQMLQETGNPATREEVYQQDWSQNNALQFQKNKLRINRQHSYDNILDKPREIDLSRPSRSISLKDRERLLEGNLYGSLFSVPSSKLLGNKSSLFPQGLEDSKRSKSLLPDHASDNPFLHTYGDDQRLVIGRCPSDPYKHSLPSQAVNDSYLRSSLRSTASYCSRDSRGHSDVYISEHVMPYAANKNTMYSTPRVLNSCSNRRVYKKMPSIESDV
Chain of presynaptic NMDARs of spinal lamina II neurons (Q00960 27-1482, other chains not shown): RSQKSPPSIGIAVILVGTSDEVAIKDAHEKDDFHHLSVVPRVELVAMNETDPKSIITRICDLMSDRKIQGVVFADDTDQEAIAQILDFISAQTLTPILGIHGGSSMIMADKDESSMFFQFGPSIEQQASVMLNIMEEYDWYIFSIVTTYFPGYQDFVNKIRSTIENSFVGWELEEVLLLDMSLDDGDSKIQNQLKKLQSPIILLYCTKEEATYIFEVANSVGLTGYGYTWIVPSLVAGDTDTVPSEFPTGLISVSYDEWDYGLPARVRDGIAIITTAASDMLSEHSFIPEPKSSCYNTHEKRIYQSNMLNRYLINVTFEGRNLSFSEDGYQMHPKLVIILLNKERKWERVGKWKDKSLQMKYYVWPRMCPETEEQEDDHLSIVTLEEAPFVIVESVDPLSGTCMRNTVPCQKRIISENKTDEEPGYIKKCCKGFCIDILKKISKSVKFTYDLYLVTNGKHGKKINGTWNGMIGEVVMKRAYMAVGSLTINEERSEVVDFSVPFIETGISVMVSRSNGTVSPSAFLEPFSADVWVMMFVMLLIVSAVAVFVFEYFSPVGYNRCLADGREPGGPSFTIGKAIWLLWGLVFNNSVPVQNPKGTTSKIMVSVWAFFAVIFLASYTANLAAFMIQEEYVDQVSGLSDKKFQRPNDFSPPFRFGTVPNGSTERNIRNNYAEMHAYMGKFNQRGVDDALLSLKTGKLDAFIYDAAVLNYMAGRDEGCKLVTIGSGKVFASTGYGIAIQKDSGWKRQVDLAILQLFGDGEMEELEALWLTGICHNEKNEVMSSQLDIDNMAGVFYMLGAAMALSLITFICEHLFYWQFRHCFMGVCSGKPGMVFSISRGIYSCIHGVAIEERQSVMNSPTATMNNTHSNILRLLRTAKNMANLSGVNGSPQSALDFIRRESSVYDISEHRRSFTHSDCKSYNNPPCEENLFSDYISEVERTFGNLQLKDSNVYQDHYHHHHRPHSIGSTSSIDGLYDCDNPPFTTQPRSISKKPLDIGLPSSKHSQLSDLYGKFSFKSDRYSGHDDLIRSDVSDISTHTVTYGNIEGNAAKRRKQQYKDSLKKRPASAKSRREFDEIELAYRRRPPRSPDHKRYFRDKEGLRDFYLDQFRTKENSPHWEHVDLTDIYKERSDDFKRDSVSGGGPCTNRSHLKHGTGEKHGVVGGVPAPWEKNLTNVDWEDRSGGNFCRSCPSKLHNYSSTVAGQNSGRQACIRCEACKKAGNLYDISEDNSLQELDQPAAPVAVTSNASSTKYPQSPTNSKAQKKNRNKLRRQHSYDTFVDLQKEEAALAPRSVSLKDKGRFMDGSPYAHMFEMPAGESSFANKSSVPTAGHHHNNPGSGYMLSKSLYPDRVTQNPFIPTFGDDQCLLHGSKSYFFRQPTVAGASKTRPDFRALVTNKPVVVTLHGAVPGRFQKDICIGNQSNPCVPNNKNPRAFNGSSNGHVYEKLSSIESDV

[8] = WT mice, morphine 10 mg/kg twice a day, 8 days
[9] = daily morphine in vehicle- or control peptide-treated rats
[10] = paclitaxel-treated rats, AP5 50 μM, pregabalin 20 μM, peptides 1 μM
[11] = vehicle-treated rats, AP5 50 μM, pregabalin 20 μM, peptides 1 μM

CCCCc1nc(Cl)c(CO)n1Cc1ccc(-c2ccccc2-c2nn[nH]n2)cc1 [losartan]
effect of Ang II on mEPSC frequency in pretreated slices [1]: completely blocked
effect of Ang II on puff NMDA currents in pretreated slices ([1]; 30 min): abolished

CC12CC3CC(C)(C1)CC(N)(C3)C2 [memantine]
pain hypersensitivity induced by Cacna2d1 overexpression (tactile and pressure withdrawal thresholds) [2]: readily reversed

CN1CC[C@]23c4c5ccc(O)c4O[C@H]2[C@@H](O)C=C[C@H]3[C@H]1C5.O=S(=O)(O)O [morphine, morphine sulfate]
amplitude of monosynaptic EPSCs evoked from the dorsal root ([3]; chronic morphine): markedly increased
NMDAR-mediated frequency of mEPSCs of spinal dorsal horn neurons ([3]; morphine 10 mg/kg twice a day for 8 day): significantly increased
anti-nociceptive effect of morphine at the end of 8-day treatment ([4]; Cacna2d1 KO mice): largely preserved
baseline withdrawal threshold ([4]; Cacna2d1 KO mice, daily morphine): did not significantly affect
anti-nociceptive effect of morphine [4, 8]: diminished
baseline withdrawal thresholds to noxious pressure and heat [4, 8]: gradually reduced
effect of 5 mg/kg morphine on the withdrawal thresholds ([5]; by day 6, vehicle- or control peptide-treated rats): failed to produce a significant effect
anti-nociceptive effect of morphine [5, 9]: gradual decrease
baseline withdrawal thresholds (mechanical and thermal hyperalgesia) [5, 9]: gradual reduction

CC(C)C[C@H](CN)CC(=O)O [pregabalin]
paclitaxel-induced pain hypersensitivity (tactile allodynia, mechanical and thermal hyperalgesia) [6]: readily reversed
reduced PPR of evoked EPSCs ([7]; paclitaxel-treated rats): completely normalized
increased amplitude of evoked monosynaptic EPSCs [7, 10]: returned the amplitude of evoked monosynaptic EPSCs of lamina II neurons to the baseline level
increased frequency of mEPSCs of lamina II neurons [7, 10]: completely normalized
PPR of evoked EPSCs ([7]; vehicle-treated rats): had no effect
amplitude of evoked monosynaptic EPSCs [7, 11]: had no effect
frequency of mEPSCs of lamina II neurons [7, 11]: had no effect
